{"source": "paper PMC5794853", "about": "(Scientific Reports, 2018)", "key": {"[1]": {"target": "RelP from Staphylococcus aureus (SaRelP) (Staphylococcus aureus strain Newman)", "test": "crystal structure; apo SaRelP, 15 mg/ml, sitting drop at room temperature, 0.1 M CHES pH 9.5, 40% (v/v) PEG600; 2.25 Å; homotetramer"}, "[2]": {"target": "T1, SaRelP (Staphylococcus aureus, UniProt W8U368)", "T1 construct": "gene ywaC; full length, N-terminal hexahistidine tag, pET24d(+), expressed in E. coli BL21(DE3), homotetramer", "test": "X-ray crystal structure", "assay_type": "binding", "settings": "active site (ATP site), Mg2+, 5 mM AMPCPP, non-hydrolysable ATP analogue"}, "[3]": {"target": "T2, BsRelQ (Bacillus subtilis, UniProt O31611, E113A)", "T2 construct": "gene yjbM; RelQ / SAS1, homotetramer", "T2 sequence (O31611 whole entry E113A)": "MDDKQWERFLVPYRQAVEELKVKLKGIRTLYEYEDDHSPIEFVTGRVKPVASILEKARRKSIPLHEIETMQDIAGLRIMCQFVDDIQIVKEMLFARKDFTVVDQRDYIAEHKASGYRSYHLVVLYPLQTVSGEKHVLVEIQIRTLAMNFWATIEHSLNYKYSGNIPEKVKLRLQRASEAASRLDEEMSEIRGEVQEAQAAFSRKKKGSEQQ", "test": "stimulation of ppGpp synthesis, HPLC", "assay_type": "biochemical", "settings": "allosteric activator, 200 µM; 5 mM ATP, 0.25 mM GDP/GTP, pH 7.5, 37 °C"}, "[4]": {"target": "T3, BsRelQ (Bacillus subtilis, UniProt O31611, H111A)", "T3 construct": "gene yjbM; RelQ / SAS1, homotetramer", "T3 sequence (O31611 whole entry H111A)": "as the sequence (O31611 whole entry E113A) above, with H111A, A113E counted along it", "test": "stimulation of ppGpp synthesis, HPLC", "assay_type": "biochemical", "settings": "allosteric activator, 200 µM; 5 mM ATP, 0.25 mM GDP/GTP, pH 7.5, 37 °C"}, "[5]": {"target": "T4, BsRelQ (Bacillus subtilis, UniProt O31611, E178A)", "T4 construct": "gene yjbM; RelQ / SAS1, homotetramer", "T4 sequence (O31611 whole entry E178A)": "as the sequence (O31611 whole entry E113A) above, with A113E, E178A counted along it", "test": "stimulation of ppGpp synthesis, HPLC", "assay_type": "biochemical", "settings": "allosteric activator, 200 µM; 5 mM ATP, 0.25 mM GDP/GTP, pH 7.5, 37 °C"}, "[6]": {"target": "T5, BsRelQ (Bacillus subtilis, UniProt O31611)", "T5 construct": "gene yjbM; RelQ / SAS1, homotetramer", "T5 sequence (O31611 1-211)": "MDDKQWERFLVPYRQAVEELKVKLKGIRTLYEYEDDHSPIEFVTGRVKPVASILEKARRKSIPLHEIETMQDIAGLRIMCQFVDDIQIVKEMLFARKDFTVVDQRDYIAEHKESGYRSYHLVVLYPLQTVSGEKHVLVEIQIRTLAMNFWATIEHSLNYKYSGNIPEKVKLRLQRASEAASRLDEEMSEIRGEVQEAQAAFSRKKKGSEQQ", "test": "stimulation of ppGpp synthesis, HPLC", "assay_type": "biochemical", "settings": "allosteric activator, 0-250 µM; 5 mM ATP, pH 7.5, 20 mM MgCl2"}, "[7]": {"target": "T6, BsRelQ (Bacillus subtilis, UniProt O31611, Q174A)", "T6 construct": "gene yjbM; RelQ / SAS1, homotetramer", "T6 sequence (O31611 whole entry Q174A)": "as the sequence (O31611 whole entry E113A) above, with A113E, Q174A counted along it", "test": "stimulation of ppGpp synthesis, HPLC", "assay_type": "biochemical", "settings": "allosteric activator, 200 µM; 5 mM ATP, 0.25 mM GDP/GTP, pH 7.5, 37 °C"}, "[8]": {"target": "the molecule itself", "test": "crystal structure; apo BsRelP, 10 mg/ml, sitting drop at room temperature, 0.1 M CHES pH 9.5, 30% (w/v) PEG 3000; 3.3 Å; homotetramer"}}}
{"molecule": "RelP from Staphylococcus aureus (SaRelP) (enzyme)", "values": [{"measurement": "stoichiometry N", "setting": "[1]", "result": 4}]}
{"molecule": "Nc1ncnc2c1ncn2[C@@H]1O[C@H](COP(=O)(O)CP(=O)(O)OP(=O)(O)O)[C@@H](O)[C@H]1O", "note": "[AMPCPP]", "values": [{"measurement": "X-ray crystal structure", "setting": "[2]", "result": "solve the structure of SaRelP in presence of AMPCPP"}]}
{"molecule": "Nc1nc2c(ncn2[C@@H]2O[C@H](COP(=O)(O)OP(=O)(O)OP(=O)(O)O)[C@@H](OP(=O)(O)OP(=O)(O)O)[C@H]2O)c(=O)[nH]1", "note": "[pppGpp]", "values": [{"measurement": "stimulation of ppGpp synthesis, HPLC", "setting": "[3]", "result": "Variation of His111 and Glu113 does not affect stimulation of BsRelQ"}, {"measurement": "stimulation of ppGpp synthesis, HPLC", "setting": "[4]", "result": "Variation of His111 and Glu113 does not affect stimulation of BsRelQ"}, {"measurement": "stimulation of ppGpp synthesis, HPLC", "setting": "[5]", "result": "upon replacement of Gln174 and Glu178 the pppGpp-stimulatory effect is decreased"}, {"measurement": "stimulation of ppGpp synthesis, HPLC", "setting": "[6]", "result": "determining the (p)ppGpp synthesis BsRelQ in presence of different concentrations of pppGpp"}, {"measurement": "stimulation of ppGpp synthesis, HPLC", "setting": "[7]", "result": "upon replacement of Gln174 and Glu178 the pppGpp-stimulatory effect is decreased"}]}
{"molecule": "RelP from Bacillus subtilis (BsRelP) (enzyme, Bacillus subtilis PY79, RelP (SAS2, YwaC), small (p)ppGpp synthetase of Bacillus subtilis PY79, gene ywaC, amplified from genomic DNA; The strep-tag was encoded by the forward primer; cloned into pET24d(+) at NcoI/XhoI; No tag cleavage is described; also called SAS2; YwaC; source: E. coli BL21 (DE3), purified (StrepTrap, SEC)) MDLSVTHMDDLKTVMEDWKNELLVYKFALDALDTKFSIISQEYNLIHGHNPIEHTKSRVKSFESIVNKLMRKGCEITTKEMKEHIHDIAGVRIICSFISDIYNVVNVLKQHEDLRIVKVKDYIQTPKPNGYRSLHLIIEMPVNLTNRVEYVKAEIQIRTIAMDFWASLEHKIYYKLNNDVPKQLTDELKEAAEIAHYLDEKMLGIKKEVD", "values": [{"measurement": "stoichiometry N", "setting": "[8]", "result": 4}]}
